In publication PMC9396645 (Frontiers in Chemistry, 2022):

How the values were obtained:
[1] = Serum stability (radio-HPLC and radio-ITLC); format: in vitro ADME; details: ^177Lu-labeled; for release of ^177Lu in human serum: 37°C, radio-ITLC
Procedure: After radiolabeling of the compounds, serum stability was examined by HPLC and ITLC (instant thin-layer chromatography). 50 µL (20 MBq) of the ^177Lu-labeled ligands was added to 200 µL human serum (Sigma-Aldrich) and incubated at 37°C. At different time points (0, 2, 24, 48, and 72 h) 0.5 µL was applied onto iTLC-SG-glass microfiber chromatography paper strips (5 × 0.5 cm; Agilent Technologies) at a distance of 1 cm from the bottom. The strip was placed upright into a vial containing 120 µL of sodium citrate buffer (0.5 M, pH = 5.0). The buffer front was allowed to rise to the top. Subsequently, each strip was cut in eight equally sized pieces that were subsequently measured in a gamma-counter. For HPLC analysis, an equal volume of ACN was added to the samples; under these conditions, the serum proteins precipitated. The samples were centrifuged for 10 min at 12,000 × g. Following the separation of the pellet and the supernatant, their relative activity (%) was determined. An aliquot of the supernatant was analyzed by radio-HPLC (0–100% ACN in 5 min, Monolith column, Merck), with a flow rate of 2 mL/min.

[2] = test system: prostate cancer patients; experiment: PSMA-PET/CT of prostate cancer patients; format: in vivo, human; details: patient PET/CT, 20 nmol
Procedure: Diagnostic PSMA-PET/computed tomography (CT) examinations were performed 1 and 3 h after antecubital injection of 339 MBq/20 nmol ^68Ga-CA028 or 295 MBq/20 nmol ^68Ga-CA030 per patient, respectively. The method for assessing the biodistribution was performed as previously described by Afshar-Oromieh et al. ([Afshar-Oromieh et al., 2015b]). Applying the clinical standard software Syngo (Siemens), which was used to define the VOIs in the PET images, the activity distributions of the source organs was determined. This reference ([Afshar-Oromieh et al., 2015b]) was also used as a standard of reference for ^68Ga-PSMA-617 (Table 3).

[3] = test system: C4-2 cells; experiment: Internalization efficiency / specific cell uptake in C4-2 cells; format: cell-based, human; details: ^68Ga-labeled compounds 30 nM, 45 min, 37°C, specificity by 2-PMPA 500 μM, mean ± SD (n = 3)
Procedure: The specific internalization ratio was determinated in 24-well plates. The plates were previously coated with 0.1% poly-L-lysine in PBS for 20 min and washed with PBS once. C4-2 cells (10^5 cells per analysis) were added to each well and equilibrated overnight. The cells were incubated for 45 min with 250 µL of a 30 nM solution of the ^68Ga-labeled compounds either in a water bath at 37°C or on ice. The PSMA-receptor-blocking agent 2-(phosphonomethyl)pentanedioic acid (2-PMPA; 500 μM; Axxora) was used to verify the specificity of the cellular uptake of the novel compounds. The cells were washed thrice (using 1 ml of ice-cold PBS), followed by an incubation with 0.5 ml of a glycine solution (50 mM in HCl at a pH of 2.8) for 5 min, washed once with 1 ml of ice-cold PBS, and finally lysed with 0.5 ml of 0.3 M NaOH. The lysate was collected, and the radioactivity was measured in a gamma-counter. Triplicate measurements were performed for all experiments.

[4] = test system: C4-2 tumor bearing BALB/c nu/nu mice; experiment: Small-animal PET imaging in C4-2 tumor bearing mice; format: in vivo, mouse; details: mean SUV from PET, 2 h p.i.
Source text: (§1) Athymic male nude mice (BALB/c nu/nu) were purchased from Charles River at 4‒5 weeks of age (19–23 g). The mice were kept under pathogen-free conditions for 1 week prior to the study. The mice had free access to water and food and were housed with a 12-h/12-h light/dark cycle. The xenografts required for positron emission tomography (PET) imaging and biodistribution studies were obtained by inoculation of 5 × 10^7 C4-2 cells in 50% Matrigel in Opti-MEM I (1 ×) medium. For this purpose, the mice were anesthetized with 2% sevoflurane, and inoculation was performed subcutaneously on the right trunk. When the size of the tumor was approximately 1 cm^3, the studies were performed.
For small-animal PET imaging, the different ^68Ga-labeled PSMA ligands (0.5 nmol, 20 MBq in approximately 100 µL 0.9% saline) were injected into C4-2 tumor bearing mice. The dynamic PET was recorded in a small animal PET scanner (Siemens Inveon D-PET). The standardized uptake values (SUVs) were obtained from conventional (non-dynamic) PET images. The formula for the SUV was SUV=activity in ROI (Bq/ml) × animal weight (g)/injected dose(Bq)
Manual delineation of the respective appropriate whole organ (heart, kidneys, bladder, tumor, with an approximate volume of 100–500 µL) yielded the volumes of interest (VOIs). For this purpose, whole organs or parts of the organ/tissue (liver and muscle) were used. The images were reconstructed based on the procedure: OSEM 3D/SP MAP with 16 subsets, two iterations, and an image x-y size: 256, image z size: 161. The data were not modified with a post-processing filter. Analysis of the images and time-activity curves (TACs) was conducted on the Inveon™ Acquisition Workplace (IAW) from Siemens IRW 4.1. […] […] The mean SUVs were plotted over time in order to compare the different radiotracers.

[5] = test system: C4-2 tumor bearing BALB/c nu/nu mice; experiment: Biodistribution (organ distribution) in C4-2 tumor-bearing mice; format: in vivo, mouse; details: tumor bearing mice, n = 3
Source text: as §1
Based on the results of the PET imaging, ^68Ga-CA028 and ^68Ga-CA030, the most promising compounds, were chosen for biodistribution studies in C4-2 tumor-bearing mice. The labeled compound (0.05 nmol, 20 MBq) was administered to the mice via tail vein injection. Animals were sacrificed and organs were harvested at the following time points: 20 min, 1, 2, and 4 h p.i. The organs were dissected and weighed, the activity was measured with a γ-counter, and the % ID/g was calculated.

## O=C([O-])CN1CCN(CC(=O)[O-])CCN(C(CCC(=O)NCc2ccc(NC(=S)NCC3CCC(C(=O)NC(Cc4ccc5ccccc5c4)C(=O)NCCCCC(NC(=O)NC(CCC(=O)O)C(=O)O)C(=O)O)CC3)cc2)C(=O)O)CCN(CC(=O)[O-])CC1.[177Lu+3] (stereo not drawn) [^177Lu-CA029]
[1]
  release of ^177Lu in human serum: no release

## O=C([O-])CN1CCN(CC(=O)[O-])CCN(CC(=O)O)C(Cc2ccc(NC(=S)NCC3CCC(C(=O)NC(Cc4ccc5ccccc5c4)C(=O)NCCCCC(NC(=O)NC(CCC(=O)O)C(=O)O)C(=O)O)CC3)cc2)CN(CC(=O)[O-])CC1.[177Lu+3] (stereo not drawn) [^177Lu-CA030]
[1]
  release of ^177Lu in human serum: no release
[1]; over 72 h
  stability in human serum: stable

## O=C([O-])CN1CCN(CC(=O)[O-])CCN(CC(=O)O)C(Cc2ccc(NC(=S)NCC3CCC(C(=O)NC(Cc4ccc5ccccc5c4)C(=O)NCCCCC(NC(=O)NC(CCC(=O)O)C(=O)O)C(=O)O)CC3)cc2)CN(CC(=O)[O-])CC1.[68Ga+3] (stereo not drawn) [^68Ga-CA030]
[2]; first listed bone metastasis, 1 h p.i.
  SUV mean Bone metastasis: 27.2
[2]; first listed bone metastasis, 3 h p.i.
  SUV mean Bone metastasis: 37.7
[2]; 1 h p.i.
  SUV mean Blood pool, mediastinal: 5.6
  SUV mean Colon: 4.9
  SUV mean Gluteal muscle: 0.8
  SUV mean Kidneys: 13.4
  SUV mean Lacrimal gland: 7.1
  SUV mean Liver: 5.8
  SUV mean Nasal mucosa: 3.3
  SUV mean Parotid gland: 6.1
  SUV mean Proximal small intestine: 4.1
  SUV mean Spleen: 7.2
  SUV mean Sublingual gland: 4.1
  SUV mean Submandibular gland: 8.7
[2]; 3 h p.i.
  SUV mean Blood pool, mediastinal: 4.5
  SUV mean Colon: 4.7
  SUV mean Gluteal muscle: 0.7
  SUV mean Kidneys: 16.5
  SUV mean Lacrimal gland: 9.0
  SUV mean Liver: 5.9
  SUV mean Nasal mucosa: 3.8
  SUV mean Parotid gland: 6.7
  SUV mean Proximal small intestine: 5.0
  SUV mean Spleen: 6.1
  SUV mean Sublingual gland: 4.9
  SUV mean Submandibular gland: 11.3
[2]; second listed bone metastasis, 1 h p.i.
  SUV mean Bone metastasis: 30.9
[2]; second listed bone metastasis, 3 h p.i.
  SUV mean Bone metastasis: 32.6
[2]; third listed bone metastasis, 1 h p.i.
  SUV mean Bone metastasis: 31.0
[2]; third listed bone metastasis, 3 h p.i.
  SUV mean Bone metastasis: 33.1
[3]
  Specific lysate (internalization): 53.8 ± 5.4 %IA/10^6 cells
[4]
  tumor-to-kidney ratio: 0.33
[5]; 20 min
  Organ distribution Blood: 4.33 ± 0.51 % ID/g
  Organ distribution Brain: 0.08 ± 0.01 % ID/g
  Organ distribution Heart: 1.29 ± 0.30 % ID/g
  Organ distribution Kidneys: 63.89 ± 5.72 % ID/g
  Organ distribution Liver: 1.04 ± 0.18 % ID/g
  Organ distribution Lung: 2.63 ± 0.89 % ID/g
  Organ distribution Muscle: 1.39 ± 1.30 % ID/g
  Organ distribution Small intestine: 1.00 ± 0.38 % ID/g
  Organ distribution Spleen: 8.37 ± 0.47 % ID/g
  Organ distribution Tumor: 5.17 ± 1.48 % ID/g
[5]; 1 h
  Organ distribution Blood: 3.59 ± 1.52 % ID/g
  Organ distribution Brain: 0.08 ± 0.02 % ID/g
  Organ distribution Heart: 1.03 ± 0.36 % ID/g
  Organ distribution Kidneys: 46.39 ± 23.44 % ID/g
  Organ distribution Liver: 1.52 ± 0.61 % ID/g
  Organ distribution Lung: 2.74 ± 0.72 % ID/g
  Organ distribution Muscle: 0.63 ± 0.21 % ID/g
  Organ distribution Small intestine: 0.92 ± 0.37 % ID/g
  Organ distribution Spleen: 2.86 ± 1.86 % ID/g
  Organ distribution Tumor: 5.36 ± 2.21 % ID/g
[5]; 2 h
  Organ distribution Blood: 1.42 ± 0.61 % ID/g
  Organ distribution Brain: 0.04 ± 0.02 % ID/g
  Organ distribution Heart: 0.40 ± 0.09 % ID/g
  Organ distribution Kidneys: 20.19 ± 7.92 % ID/g
  Organ distribution Liver: 0.81 ± 0.15 % ID/g
  Organ distribution Lung: 1.08 ± 0.42 % ID/g
  Organ distribution Muscle: 0.28 ± 0.03 % ID/g
  Organ distribution Small intestine: 0.75 ± 0.06 % ID/g
  Organ distribution Spleen: 1.39 ± 0.47 % ID/g
  Organ distribution Tumor: 4.31 ± 0.30 % ID/g
[5]; 4 h
  Organ distribution Blood: 0.39 ± 0.14 % ID/g
  Organ distribution Brain: 0.01 ± 0.00 % ID/g
  Organ distribution Heart: 0.16 ± 0.05 % ID/g
  Organ distribution Kidneys: 6.17 ± 0.82 % ID/g
  Organ distribution Liver: 0.50 ± 0.14 % ID/g
  Organ distribution Lung: 0.34 ± 0.10 % ID/g
  Organ distribution Muscle: 0.17 ± 0.02 % ID/g
  Organ distribution Small intestine: 0.21 ± 0.09 % ID/g
  Organ distribution Spleen: 0.48 ± 0.09 % ID/g
  Organ distribution Tumor: 2.69 ± 0.88 % ID/g
